Experimental data from patent US20260022142A1, “MACROCYCLIC IMMUNOMODULATORS” (Bristol-Myers Squibb Company, priority 2022, published 2026).
Bridge positions count the residues as written; N and C are the ends. Square brackets hold non-standard residues; d marks the D form. Peptide text beside a SMILES is read from it. * marks the point of attachment. Phe(4-COOH) = N[C@@H](Cc1ccc(C(=O)O)cc1)C(=O)O; Bip = N[C@@H](Cc1ccc(-c2ccccc2)cc1)C(=O)O; Phe(3-Me) = Cc1cccc(C[C@H](N)C(=O)O)c1; Cha = N[C@@H](CC1CCCCC1)C(=O)O; Carboxymethyl = O=C(O)C*; Orn = NCCC[C@H](N)C(=O)O; Aun = NCCCCCCCCCCC(=O)O; Dab = NCC[C@H](N)C(=O)O; Dap = NC[C@H](N)C(=O)O; AEEA = NCCOCCOCC(=O)O

Biological target: T1, PD-1/PD-L1 interaction (PE-labeled human PD-L1-Ig binding to Jurkat cell line over-expressing human PD-1) (Homo sapiens, UniProt Q15116)
T1 construct: expressed in transfected cells; host or cells: Jurkat
T1 sequence (Q15116 25-288): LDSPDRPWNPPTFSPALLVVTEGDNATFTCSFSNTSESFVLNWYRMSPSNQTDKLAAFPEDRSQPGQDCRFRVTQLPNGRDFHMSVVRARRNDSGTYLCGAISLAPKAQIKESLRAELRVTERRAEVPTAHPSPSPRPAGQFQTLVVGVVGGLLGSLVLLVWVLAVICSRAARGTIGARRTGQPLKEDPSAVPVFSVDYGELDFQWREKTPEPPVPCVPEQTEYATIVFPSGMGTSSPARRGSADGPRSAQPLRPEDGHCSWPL
Assay: Jurkat-PD-1 Cell Binding High-Content Screening Assay (CBA)
Type: cell-based
Details: Jurkat cell line over-expressing human PD-1; PE-labeled PD-L1-Ig 20 nM final; read-out: Jurkat hPD1-PDL1 IC50
How it was run: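 Binding of fluorescent PD-L1-Ig (20 nM final) to Jurkat-PD-1 cells was measured by automated imaging after 1 h, following a 2 h compound pre-treatment at 37° C.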

SMILES | IC50 [nM]
CC(C)C[C@H]1NC(=O)[C@H](CCCN)NC(=O)[C@H](Cc2ccc(O)cc2)NC(=O)[C@H](Cc2ccc(-c3ccccc3)cc2)NC(=O)[C@H](Cc2ccc(O)cc2)NC(=O)[C@H](Cc2c[nH]c3ccccc23)NC(=O)[C@H](CC(=O)O)NC(=O)[C@H](Cc2ccc(OCC(=O)O)cc2)NC(=O)[C@H](Cc2ccc(OCC(=O)O)cc2)NC(=O)CSC[C@@H](C(=O)N[C@@H](CCN)C(=O)NCCCCCCCCCCC(=O)O)NC(=O)[C@H](CCCN)NC(=O)[C@H](Cc2ccc(O)cc2)NC(=O)[C@H](CC2CCCCC2)NC(=O)[C@H](CCN)NC1=O [Compound 2513] ({CH2CO}-Y(Carboxymethyl)Y(Carboxymethyl)DWY[Bip]Y[Orn][dL][Dab][Cha]Y[Orn]C[Dab][Aun]-OH; thioether N-14) | 81.3
CC(C)C[C@H]1NC(=O)[C@H](CCCN)NC(=O)[C@H](Cc2ccc(O)cc2)NC(=O)[C@H](Cc2ccc(-c3ccccc3)cc2)NC(=O)[C@H](Cc2ccc(O)cc2)NC(=O)[C@H](Cc2c[nH]c3ccccc23)NC(=O)[C@H](CC(=O)O)NC(=O)[C@H](Cc2ccc(OCC(=O)O)cc2)NC(=O)[C@H](Cc2ccc(OCC(=O)O)cc2)NC(=O)CSC[C@@H](C(=O)N[C@@H](CCN)C(=O)NCCCCCCCCCCC(=O)O)NC(=O)[C@H](CN)NC(=O)[C@H](Cc2ccc(O)cc2)NC(=O)[C@H](CC2CCCCC2)NC(=O)[C@H](CCN)NC1=O [Compound 2514] ({CH2CO}-Y(Carboxymethyl)Y(Carboxymethyl)DWY[Bip]Y[Orn][dL][Dab][Cha]Y[Dap]C[Dab][Aun]-OH; thioether N-14) | 49.7
CC(C)C[C@H]1NC(=O)[C@H](CCCN)NC(=O)[C@H](Cc2ccc(O)cc2)NC(=O)[C@H](Cc2ccc(-c3ccccc3)cc2)NC(=O)[C@H](Cc2ccc(O)cc2)NC(=O)[C@H](Cc2c[nH]c3ccccc23)NC(=O)[C@H](CC(=O)O)NC(=O)[C@H](Cc2ccc(C(=O)O)cc2)NC(=O)[C@H](Cc2ccc(OCC(=O)O)cc2)NC(=O)CSC[C@@H](C(=O)NCCOCCOCC(=O)NCCCCCCCCCCC(=O)O)NC(=O)[C@H](CCCCN)NC(=O)[C@H](Cc2ccc(O)cc2)NC(=O)[C@H](CC2CCCCC2)NC(=O)[C@H](CCN)NC1=O [Compound 2515] ({CH2CO}-Y(Carboxymethyl)[Phe(4-COOH)]DWY[Bip]Y[Orn][dL][Dab][Cha]YKC[AEEA][Aun]-OH; thioether N-14) | 40.4
CC(C)C[C@H]1NC(=O)[C@H](CCCN)NC(=O)[C@H](Cc2ccc(O)cc2)NC(=O)[C@H](Cc2ccc(-c3ccccc3)cc2)NC(=O)[C@H](Cc2ccc(O)cc2)NC(=O)[C@H](Cc2c[nH]c3ccccc23)NC(=O)[C@H](CC(=O)O)NC(=O)[C@H](Cc2ccc(OCC(=O)O)cc2)NC(=O)[C@H](Cc2ccc(OCC(=O)O)cc2)NC(=O)CSC[C@@H](C(=O)NCCOCCOCC(=O)NCCCCCCCCCCC(=O)O)NC(=O)[C@H](CCCNC(=N)N)NC(=O)[C@H](Cc2ccc(O)cc2)NC(=O)[C@H](CC2CCCCC2)NC(=O)[C@H](CCN)NC1=O [Compound 2516] ({CH2CO}-Y(Carboxymethyl)Y(Carboxymethyl)DWY[Bip]Y[Orn][dL][Dab][Cha]YRC[AEEA][Aun]-OH; thioether N-14) | 126
CC(C)C[C@H]1NC(=O)[C@H](CCCN)NC(=O)[C@H](Cc2ccc(O)cc2)NC(=O)[C@H](Cc2ccc(-c3ccccc3)cc2)NC(=O)[C@H](Cc2ccc(O)cc2)NC(=O)[C@H](Cc2c[nH]c3ccccc23)NC(=O)[C@H](CC(=O)O)NC(=O)[C@H](Cc2ccc(OCC(=O)O)cc2)NC(=O)[C@H](CN)NC(=O)CSC[C@@H](C(=O)NCCOCCOCC(=O)NCCCCCCCCCCC(=O)O)NC(=O)[C@H](CCCCN)NC(=O)[C@H](Cc2ccc(O)cc2)NC(=O)[C@H](CC2CCCCC2)NC(=O)[C@H](CCN)NC1=O [Compound 2517] ({CH2CO}-[Dap]Y(Carboxymethyl)DWY[Bip]Y[Orn][dL][Dab][Cha]YKC[AEEA][Aun]-OH; thioether N-14) | 274
Cc1cccc(C[C@@H]2NC(=O)[C@H](CC(=O)O)NC(=O)[C@H](Cc3ccc(OCC(=O)O)cc3)NC(=O)[C@H](CN)NC(=O)CSC[C@@H](C(=O)NCCOCCOCC(=O)NCCCCCCCCCCC(=O)O)NC(=O)[C@H](CN)NC(=O)[C@H](Cc3ccc(O)cc3)NC(=O)[C@H](CC3CCCCC3)NC(=O)[C@H](CCN)NC(=O)[C@@H](CC(C)C)NC(=O)[C@H](CCCN)NC(=O)[C@H](Cc3ccc(O)cc3)NC(=O)[C@H](Cc3ccc(-c4ccccc4)cc3)NC(=O)[C@H](Cc3ccc(O)cc3)NC2=O)c1 [Compound 2518] ({CH2CO}-[Dap]Y(Carboxymethyl)D[Phe(3-Me)]Y[Bip]Y[Orn][dL][Dab][Cha]Y[Dap]C[AEEA][Aun]-OH; thioether N-14) | 207
Cc1cccc(C[C@@H]2NC(=O)[C@H](CC(=O)O)NC(=O)[C@H](Cc3ccc(OCC(=O)O)cc3)NC(=O)[C@H](CN)NC(=O)CSC[C@@H](C(=O)NCCOCCOCC(=O)NCCCCCCCCCCC(=O)O)NC(=O)[C@H](CCCN)NC(=O)[C@H](Cc3ccc(O)cc3)NC(=O)[C@H](CC3CCCCC3)NC(=O)[C@H](CCN)NC(=O)[C@@H](CC(C)C)NC(=O)[C@H](CCCN)NC(=O)[C@H](Cc3ccc(O)cc3)NC(=O)[C@H](Cc3ccc(-c4ccccc4)cc3)NC(=O)[C@H](Cc3ccc(O)cc3)NC2=O)c1 [Compound 2519] ({CH2CO}-[Dap]Y(Carboxymethyl)D[Phe(3-Me)]Y[Bip]Y[Orn][dL][Dab][Cha]Y[Orn]C[AEEA][Aun]-OH; thioether N-14) | 152
Cc1cccc(C[C@@H]2NC(=O)[C@H](CC(=O)O)NC(=O)[C@H](Cc3ccc(OCC(=O)O)cc3)NC(=O)[C@H](CN)NC(=O)CSC[C@@H](C(=O)NCCOCCOCC(=O)NCCCCCCCCCCC(=O)O)NC(=O)[C@H](CCCNC(=N)N)NC(=O)[C@H](Cc3ccc(O)cc3)NC(=O)[C@H](CC3CCCCC3)NC(=O)[C@H](CCN)NC(=O)[C@@H](CC(C)C)NC(=O)[C@H](CCCN)NC(=O)[C@H](Cc3ccc(O)cc3)NC(=O)[C@H](Cc3ccc(-c4ccccc4)cc3)NC(=O)[C@H](Cc3ccc(O)cc3)NC2=O)c1 [Compound 2520] ({CH2CO}-[Dap]Y(Carboxymethyl)D[Phe(3-Me)]Y[Bip]Y[Orn][dL][Dab][Cha]YRC[AEEA][Aun]-OH; thioether N-14) | 233
CC(C)C[C@H]1NC(=O)[C@H](CCCN)NC(=O)[C@H](Cc2ccc(O)cc2)NC(=O)[C@H](Cc2ccc(-c3ccccc3)cc2)NC(=O)[C@H](Cc2ccc(O)cc2)NC(=O)[C@H](Cc2c[nH]c3ccccc23)NC(=O)[C@H](CC(=O)O)NC(=O)[C@H](Cc2ccc(OCC(=O)O)cc2)NC(=O)[C@H](Cc2ccc(OCC(=O)O)cc2)NC(=O)CSC[C@@H](C(=O)NCCOCCOCC(=O)NCCCCCCCCCCC(=O)O)NC(=O)[C@H](CCCN)NC(=O)[C@H](Cc2ccc(O)cc2)NC(=O)[C@H](CC2CCCCC2)NC(=O)[C@H](CCN)NC1=O [Compound 2521] ({CH2CO}-Y(Carboxymethyl)Y(Carboxymethyl)DWY[Bip]Y[Orn][dL][Dab][Cha]Y[Orn]C[AEEA][Aun]-OH; thioether N-14) | 89.1
CC(C)C[C@H]1NC(=O)[C@H](CCCN)NC(=O)[C@H](Cc2ccc(O)cc2)NC(=O)[C@H](Cc2ccc(-c3ccccc3)cc2)NC(=O)[C@H](Cc2ccc(O)cc2)NC(=O)[C@H](Cc2c[nH]c3ccccc23)NC(=O)[C@H](CC(=O)O)NC(=O)[C@H](Cc2ccc(OCC(=O)O)cc2)NC(=O)[C@H](Cc2ccc(OCC(=O)O)cc2)NC(=O)CSC[C@@H](C(=O)NCCOCCOCC(=O)NCCCCCCCCCCC(=O)O)NC(=O)[C@H](CN)NC(=O)[C@H](Cc2ccc(O)cc2)NC(=O)[C@H](CC2CCCCC2)NC(=O)[C@H](CCN)NC1=O [Compound 2522] ({CH2CO}-Y(Carboxymethyl)Y(Carboxymethyl)DWY[Bip]Y[Orn][dL][Dab][Cha]Y[Dap]C[AEEA][Aun]-OH; thioether N-14) | 340
CC(C)C[C@H]1NC(=O)[C@H](CCCN)NC(=O)[C@H](C(C)C)NC(=O)[C@H](Cc2ccc(-c3ccccc3)cc2)NC(=O)[C@H](C(C)C)NC(=O)[C@H](Cc2c[nH]c3ccccc23)NC(=O)[C@H](CC(=O)O)NC(=O)[C@H](Cc2ccc(C(=O)O)cc2)NC(=O)[C@H](Cc2ccc(OCC(=O)O)cc2)NC(=O)CSC[C@@H](C(=O)N[C@@H](CCCCN)C(=O)NCCOCCOCC(=O)NCCCCCCCCCCC(=O)O)NC(=O)[C@H](CCCCN)NC(=O)[C@H](C(C)C)NC(=O)[C@H](CC2CCCCC2)NC(=O)[C@H](CCN)NC1=O [Compound 2523] ({CH2CO}-Y(Carboxymethyl)[Phe(4-COOH)]DWV[Bip]V[Orn][dL][Dab][Cha]VKCK[AEEA][Aun]-OH; thioether N-14) | 7.6
CC(C)C[C@H]1NC(=O)[C@H](CCCN)NC(=O)[C@H](C(C)C)NC(=O)[C@H](Cc2ccc(-c3ccccc3)cc2)NC(=O)[C@H](C(C)C)NC(=O)[C@H](Cc2c[nH]c3ccccc23)NC(=O)[C@H](CC(=O)O)NC(=O)[C@H](Cc2ccc(OCC(=O)O)cc2)NC(=O)[C@H](CN)NC(=O)CSC[C@@H](C(=O)N[C@@H](CCCCN)C(=O)NCCOCCOCC(=O)NCCCCCCCCCCC(=O)O)NC(=O)[C@H](CCCCN)NC(=O)[C@H](C(C)C)NC(=O)[C@H](CC2CCCCC2)NC(=O)[C@H](CCN)NC1=O [Compound 2525] ({CH2CO}-[Dap]Y(Carboxymethyl)DWV[Bip]V[Orn][dL][Dab][Cha]VKCK[AEEA][Aun]-OH; thioether N-14) | 16.5
Cc1cccc(C[C@@H]2NC(=O)[C@H](CC(=O)O)NC(=O)[C@H](Cc3ccc(OCC(=O)O)cc3)NC(=O)[C@H](CN)NC(=O)CSC[C@@H](C(=O)N[C@@H](CCCCN)C(=O)NCCOCCOCC(=O)NCCCCCCCCCCC(=O)O)NC(=O)[C@H](CN)NC(=O)[C@H](C(C)C)NC(=O)[C@H](CC3CCCCC3)NC(=O)[C@H](CCN)NC(=O)[C@@H](CC(C)C)NC(=O)[C@H](CCCN)NC(=O)[C@H](C(C)C)NC(=O)[C@H](Cc3ccc(-c4ccccc4)cc3)NC(=O)[C@H](C(C)C)NC2=O)c1 [Compound 2526] ({CH2CO}-[Dap]Y(Carboxymethyl)D[Phe(3-Me)]V[Bip]V[Orn][dL][Dab][Cha]V[Dap]CK[AEEA][Aun]-OH; thioether N-14) | 7.2
